Experimental data as given in patent US9718796B2, “Substituted benzoazepines as toll-like receptor modulators” (VENTIRX PHARMACEUTICALS, INC., priority 2011, dated 2017).
Read-outs that look alike come from different tables or passages of the source.

Target: T1, hTLR8 (Homo sapiens, UniProt Q9NR97)
T1 construct: host or cells: HEK293 cells stably transfected with hTLR8
T1 sequence (Q9NR97 27-1041): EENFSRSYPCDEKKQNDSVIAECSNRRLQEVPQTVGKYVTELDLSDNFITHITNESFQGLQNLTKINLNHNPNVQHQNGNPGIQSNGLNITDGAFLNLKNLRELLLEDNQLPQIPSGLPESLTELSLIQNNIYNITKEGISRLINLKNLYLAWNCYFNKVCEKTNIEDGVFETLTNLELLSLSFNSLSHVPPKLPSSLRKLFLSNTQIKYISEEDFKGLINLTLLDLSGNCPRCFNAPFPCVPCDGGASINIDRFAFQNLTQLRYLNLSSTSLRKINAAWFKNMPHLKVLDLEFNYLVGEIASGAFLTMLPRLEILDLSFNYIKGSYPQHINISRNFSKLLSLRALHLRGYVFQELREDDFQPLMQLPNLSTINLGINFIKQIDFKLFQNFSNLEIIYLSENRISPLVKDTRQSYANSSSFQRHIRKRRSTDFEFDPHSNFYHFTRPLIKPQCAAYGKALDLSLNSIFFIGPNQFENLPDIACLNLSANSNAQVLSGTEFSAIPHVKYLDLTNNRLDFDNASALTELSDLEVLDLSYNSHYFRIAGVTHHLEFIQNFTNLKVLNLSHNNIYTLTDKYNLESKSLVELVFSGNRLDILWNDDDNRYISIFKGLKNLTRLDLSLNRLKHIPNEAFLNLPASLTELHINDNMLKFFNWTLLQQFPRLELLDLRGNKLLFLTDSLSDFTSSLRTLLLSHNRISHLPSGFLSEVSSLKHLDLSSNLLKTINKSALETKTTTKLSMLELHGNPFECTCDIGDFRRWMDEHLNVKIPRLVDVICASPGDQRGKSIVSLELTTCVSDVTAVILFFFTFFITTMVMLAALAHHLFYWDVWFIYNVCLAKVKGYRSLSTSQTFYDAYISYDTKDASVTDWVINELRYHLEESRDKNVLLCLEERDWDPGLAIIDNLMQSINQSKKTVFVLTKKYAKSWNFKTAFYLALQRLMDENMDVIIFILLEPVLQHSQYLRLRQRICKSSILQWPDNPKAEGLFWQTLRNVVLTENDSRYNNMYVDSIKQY
Assay: HEK-293 hTLR8 transfectant antagonist assay (NF-κB driven SEAP reporter)
Format: cell-based
Conditions: hTLR8 reporter cells
Procedure: The HEK-293 hTLR transfectant assay employs HEK293 cells stably transfected with various hTLRs and transiently co-transfected with a plasmid containing an NF-κB driven secreted embryonic alkaline phosphate (SEAP) reporter gene. Stimulation of TLRs activates their downstream signaling pathways and induces nuclear translocation of the transcription factor NF-κB. Reporter gene activity is then measured using a spectrophotometric assay. To measure antagonist activity, human embryonic kidney (HEK) cells (e.g., 293XL-hTLR8 cells available from InvivoGen, San Diego, Calif.) are prepared according to supplier's instructions and incubated with various concentrations of test compound overnight. The amount of induced […] is measured by reading the absorbance at 650 nm. The compounds of the invention have an MC50 of 25 μM or less, wherein MC50 is defined as the concentration at which 50% of maximum induction is seen. For the TLR8 antagonist assays, cells are transiently transfected with the reporter gene on Day 1 per the supplier's instructions. Antagonist compounds are added to the cultures on Day 2 followed by addition of a TLR8 agonist approximately 2 hours later. Cultures are incubated overnight and SEAP activity is measured on Day 3. In a typical assay, 50,000 HEK239 hTLR8 cells are seeded per culture well and transiently transfected with the SEAP reporter gene. Antagonists are added to cultures in culture medium and […] DMSO over a concentration range of 0.1 nanomolar to 10 micromolar. TLR8 agonists are added to cultures 2 hours later at a fixed concentration (e.g., 1 micromolar or 10 micromolar of Compound A) and cultures are then incubated for 16-24 hrs at 37° C. in a humidified CO incubator. Antagonists are also evaluated for activity in the absence of agonist. TLR8 antagonist activity was measured in a hTLR8 assay format, measuring IC50 values. […] IC50s were then calculated.

[1] = IC50, nM, vs. VTX-378 1 μM, TLR8 agonist VTX-378 (Compound A) 1 μM
[2] = IC50, nM, vs. VTX-378 10 μM, TLR8 agonist VTX-378 (Compound A) 10 μM
[3] = TLR8 agonist VTX-378 (Compound A) 0.5 μM, read-out: IC50, nM, vs. VTX-378 0.5 μM
[4] = IC50, nM, vs. 3M002 10 μM, agonist 3M002 10 μM
[5] = IC50, nM, vs. 3M002 1 μM, agonist 3M002 1 μM

Structure (SMILES) | IC50 [1] [nM] | IC50 [2] [nM] | IC50 [3] [nM] | IC50 [4] [nM] | IC50 [5] [nM]
CCOC(=O)C1=Cc2cc(-c3ccc(C(=O)N4CCCC4)cc3)ccc2N=C(NOC)C1 [Compound 2930] | ≥ 10000 | ≥ 10000 |  |  | 
CCOC(=O)C1=Cc2cc(-c3ccc(C(=O)N(C)C)cc3)ccc2N=C(N)C1 [Compound 2937, Ethyl 2-amino-7-[4-(dimethylcarbamoyl)phenyl]-3H-1-benzazepine-4-carboxylate] | < 1000 | ≥ 10000 |  |  | 
CCOC(=O)C1=Cc2cc(Oc3ccccc3)ccc2N=C(N)C1 [Compound 2946] | 1000 to 10000 | ≥ 10000 |  |  | 
CCOC(=O)C1=Cc2cc(-c3ccc(C(=O)N4CCCC4)cc3)ccc2N=C(NCCO)C1 [Compound 2968] | 1000 to 10000 | ≥ 10000 | 1000 to 10000 |  | 
CC(C)NC(=O)C1=Cc2cc(-c3ccc(C(=O)N4CCCC4)cc3)ccc2N=C(N)C1 [Compound 3009, 2-Amino-N-isopropyl-7-[4-(pyrrolidin-1-ylcarbonyl)phenyl]-3H-1-benzazepine-4-carboxamide] | 1000 to 10000 | ≥ 10000 |  |  | 
CCOC(=O)C1=Cc2cc(Oc3cccc(C(F)(F)F)c3)ccc2N=C(N)C1 [Compound 3046] | 1000 to 10000 | ≥ 10000 |  | 1000 to 10000 | 
CCOC(=O)C1=Cc2cc(-c3ccc(S(=O)(=O)N(C)C)cc3)ccc2N=C(N)C1 [Compound 3055, Ethyl 2-amino-7-{4-[(dimethylamino)sulfonyl]phenyl}-3H-1-benzazepine-4-carboxylate] | 1000 to 10000 | ≥ 10000 |  |  | 
CCOC(=O)C1=Cc2cc(-c3cccc(C(=O)N(C)C)c3)ccc2N=C(N)C1 [Compound 3058, Ethyl 2-amino-7-[3-(dimethylcarbamoyl)phenyl]-3H-1-benzazepine-4-carboxylate] | 1000 to 10000 | ≥ 10000 |  |  | 
CCOC(=O)C1=Cc2cc(-c3cccc(C(F)(F)F)c3)ccc2N=C(N)C1 [Compound 3059, Ethyl 2-amino-7-[3-(trifluoromethyl)phenyl]-3H-1-benzazepine-4-carboxylate] | 1000 to 10000 | ≥ 10000 |  | ≥ 10000 | 
CCOC(=O)C1=Cc2cc(Oc3ccc(C(=O)N(C)C)cc3)ccc2N=C(N)C1 [Compound 3093] | ≥ 10000 | ≥ 10000 |  | ≥ 10000 | 
CCOC(=O)C1=Cc2cc(-c3ccccc3C)ccc2N=C(N)C1 [Compound 3096, Ethyl 2-amino-7-(2-methylphenyl)-3H-1-benzazepine-4-carboxylate] | 1000 to 10000 | ≥ 10000 |  |  | 
CCOC(=O)C1=Cc2cc(Nc3ccccc3)ccc2N=C(N)C1 [Compound 3097] | 1000 to 10000 |  | < 1000 | 1000 to 10000 | 
CCOC(=O)C1=Cc2cc(-c3ccc(OC)cc3)ccc2N=C(N)C1 [Compound 3098, Ethyl 2-amino-7-(4-methoxyphenyl)-3H-1-benzazepine-4-carboxylate] | ≥ 10000 |  | 1000 to 10000 | 1000 to 10000 | 
CCOC(=O)C1=Cc2cc(-c3ccc(C(=O)OCC)cc3)ccc2N=C(N)C1 [Compound 3101, Ethyl 2-amino-7-[4-(ethoxycarbonyl)phenyl]-3H-1-benzazepine-4-carboxylate] | ≥ 10000 |  | 1000 to 10000 | ≥ 10000 | 
CCOC(=O)C1=Cc2cc(-c3ccc(C(=O)N4CCCC4)cc3C)ccc2N=C(N)C1 [Compound 3119, Ethyl 2-amino-7-[2-methyl-4-(pyrrolidin-1-ylcarbonyl)phenyl]-3H-1-benzazepine-4-carboxylate] | < 1000 |  | < 1000 | < 1000 | 
CCOC(=O)C1=Cc2cc(Oc3ccc(OC)cc3)ccc2N=C(N)C1 [Compound 3125] | 1000 to 10000 |  | 1000 to 10000 | ≥ 10000 | 1000 to 10000
CCOC(=O)C1=Cc2cc(-c3ccccc3C(F)(F)F)ccc2N=C(N)C1 [Compound 3126, Ethyl 2-amino-7-[2-(trifluoromethyl)phenyl]-3H-1-benzazepine-4-carboxylate] | 1000 to 10000 |  | < 1000 | 1000 to 10000 | < 1000
